# Data taken from paper PMC5131364, “Pharmacologic modulation of RORγt translates to efficacy in preclinical and translational models of psoriasis and inflammatory arthritis” (Scientific Reports, 2016).
# Legend:
# human CCR6+ T cells = assay: Human CCR6+ cells under Th1 differentiation condition; type: cell-based; settings: Th1 polarization conditions
# Experimental: Mouse CD4+ T cell in vitro Th1 differentiation
# Total CD4+ T cells were isolated from splenocytes of C57/BL6 mice (Chareles River Labrotory) using a CD4+ T cell isolation kit (Miltenyl Biotec, Auburn, CA), following the manufacturer’s instructions. Cells were resuspended in culture medium (described in Method section of Th17 differentiation) and were added to 96‐well plates at 2x10^5 per well. Titrated JNJ‐54271074 was added to each well at final DMSO concentration of 0.2%. Cells were incubated for 1 hour, after which Th1 cell differentiation medium was added with final concentrations of 1 µg/ml anti‐CD3, 5 µg/mL anti‐CD28 (BD Pharmingen, San Diego, CA), 10 µg/ml anti‐IL4, 10 ng/mL IL‐12, (R&D Systems, Minneapolis, MN). Cells were cultured at 37 °C and 5% CO2 for 3 days. Supernatants were collected and the accumulated cytokines in culture were measured by ELISA kits (R&D Systems, Minneapolis, MN) following manufacturers' instructions.
# IL‐23 induced IL‐17A and IL‐22 production in mouse splenocytes splenocytes were isolated from C57/BL6 mice and resuspended in medium and cultured in 96‐well plates at […] per 100 µL per well. Titrated JNJ‐54271074 in DMSO were added into each well and cells were incubated for 1 hour, then medium containing IL‐23 and IL‐2 (R&D systems) was added to each well at final concentration of 1 ng/mL and 10 U/ml, respectively. Cells were cultured at 37 °C and 5% CO2 for 4 days. Supernatants were collected and the accumulated cytokines in culture were measured by ELISA according to the manufacturer’s instructions (IL‐17A kit from R&D systems, and IL‐22 from Biolegend San Diego).
# Human CCR6+ cells in vitro culture without activation or under Th1 differentiation condition Human CCR6+ cells were isolated as described in Method. For experiment without activation, cells were cultured with recombinant IL‐7 (R&D) at final concentration of 10 ng/ml in the presence of 1 µM JNJ‐ 54271074 for 4 days before intracellular staining. […]
# mouse iNKT cells = assay: Mouse NKT cell in vitro activation; type: cell-based; settings: IL-1β/IL-23 plus anti-IFNγ, 4 days, 1 μM
# From the text: The following antibodies (anti-mouse or anti-human) were purchased from BD Biosciences (San Diego, CA) or eBioscience (San Diego, CA): anti-CD3-FITC (mouse 17A2 and human SK7), anti-CD4-allophycocyanin (APC), anti-CD4-PerCp, anti-CD4-FITC, anti-CD4-PE (mouse GK1.5 and human SK3), anti-CD44-PerCp (mouse IM7), anti-γδ TCR-FITC, anti-γδ TCR-PE (mouse GL3 and human B1), anti-CD62L-FITC (mouse MEL-14 and human SK11), anti-CD45RO-APC (human UCHL1), anti-CCR6-PE (human 11A9), anti-CD45-PerCp (mouse 30-F11). […] Cells were stained with fluorescence-labeled antibodies for surface marker, then fixed/permeabilized (eBioscience) and stained with antibodies for intracellular cytokines. […] The data were acquired on a FACS Calibur (BD Bioscience) and analyzed using FlowJo software (Tree Star, San Carlos, CA).
# Single cell suspension was generated from mouse mesenteric lymph-nodes. […] NKT cells were identified among total live cells using anti-CD3 and mouse conjugated CD1d-tetramer pre-loaded with alpha-GalCer, and cytokine-producing NKT cells were analyzed through intracellular staining. […]
# [1] = system: IL-23-induced psoriasis-like ear skin inflammation in C57BL/6N mice; assay: IL-23-induced skin inflammation in mice; type: in vivo, mouse; settings: for reduction of IL-17A-producing total CD3+ T cells / reduction of IL-17A-producing γδ+ T cells: 30 mg/kg BID oral
smiles,measurement,setting,value
COc1nc2ccc([C@@](O)(c3ccc(C)nc3C)c3cnnn3C)cc2c(Cl)c1Cc1ccc(C(F)(F)F)cc1 [JNJ-54271074],accumulated IFNγ production,human CCR6+ T cells,minimal effect
same,IFNγ+ cells,human CCR6+ T cells; 1 μM,slightly increased
same,IL-17A+/IFNγ+ and IL-17A+ cells,human CCR6+ T cells; 1 μM,decreased
same,IL-17A production by mouse iNKT cells,mouse iNKT cells,suppressed
same,"skin inflammation (total skin histology scores, abscesses, acanthosis)","[1]; 3, 10, 30 and 60 mg/kg BID oral, 7 days, dose-dependent",decreased skin inflammation
same,"ear mRNA expression of IL-17A, IL-22 and TNFα","[1]; 30 and 60 mg/kg, did not reach statistical significance",suppressed
same,reduction of IL-17A-producing total CD3+ T cells,[1]; DLNs,71%
same,reduction of IL-17A-producing γδ+ T cells,[1]; DLNs,43%
same,"FOXP3+ CD4+ T cells populations, vehicle vs compound treated groups","[1]; ear skin and DLNs, 30 mg/kg BID",very similar
same,reduction of IL-17A-producing total CD3+ T cells,[1]; ear skin,40%
same,reduction of IL-17A-producing γδ+ T cells,[1]; ear skin,60%
same,"ear mRNA expression of IL-17F, IFNγ and IL-6","[1]; oral BID, 7 days",significantly inhibited
